These results are taken from patent publication US9440972B2, “Pyrido[2,3-d]pyrimidine-2,4(1 H,3H)-dione derivatives” (Hydra Biosciences, Inc., priority 2014, dated 2016).

This assay has as its target T1, TRPC5 channel (Homo sapiens, UniProt Q9UL62).
T1 construct: expressed in transfected cells; host or cells: HEK293/TREx (Invitrogen), tetracycline-induced
T1 sequence (Q9UL62 1-973): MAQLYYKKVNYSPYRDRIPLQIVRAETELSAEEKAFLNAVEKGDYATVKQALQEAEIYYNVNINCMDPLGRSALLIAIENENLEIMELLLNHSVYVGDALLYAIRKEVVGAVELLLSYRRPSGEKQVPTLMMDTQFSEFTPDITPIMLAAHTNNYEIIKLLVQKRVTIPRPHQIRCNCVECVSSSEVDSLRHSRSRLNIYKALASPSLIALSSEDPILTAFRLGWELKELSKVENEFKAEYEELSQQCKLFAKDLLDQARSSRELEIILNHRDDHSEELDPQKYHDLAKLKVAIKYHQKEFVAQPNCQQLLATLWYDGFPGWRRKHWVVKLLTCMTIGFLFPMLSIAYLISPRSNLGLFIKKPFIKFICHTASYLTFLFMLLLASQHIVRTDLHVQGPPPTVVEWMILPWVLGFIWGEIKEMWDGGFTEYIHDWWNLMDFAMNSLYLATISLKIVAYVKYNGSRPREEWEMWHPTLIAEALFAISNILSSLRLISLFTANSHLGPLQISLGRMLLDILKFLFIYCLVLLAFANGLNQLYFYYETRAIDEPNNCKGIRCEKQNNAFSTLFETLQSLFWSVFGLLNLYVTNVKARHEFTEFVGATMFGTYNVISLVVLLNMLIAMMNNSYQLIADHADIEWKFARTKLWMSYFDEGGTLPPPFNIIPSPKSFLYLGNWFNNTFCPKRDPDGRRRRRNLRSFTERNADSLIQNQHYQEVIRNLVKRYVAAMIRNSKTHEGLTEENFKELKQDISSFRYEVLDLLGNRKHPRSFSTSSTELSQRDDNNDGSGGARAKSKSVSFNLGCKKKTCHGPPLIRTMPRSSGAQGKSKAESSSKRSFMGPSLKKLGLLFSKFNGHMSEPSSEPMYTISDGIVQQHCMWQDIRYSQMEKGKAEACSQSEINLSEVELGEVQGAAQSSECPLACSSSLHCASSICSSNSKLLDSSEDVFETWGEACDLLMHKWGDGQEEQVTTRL
Put plainly: High throughput screening assay: Fluo4 cell-based fluorescence assay of intracellular Ca2+ rise. The settings on record: HEK293/TREx cells inducibly expressing TRPC5, 0.027-20 μM in triplicate, NF = no IC50 curve could be fit. An excerpt: The assay depended on detection of the rise in intracellular Ca2+ concentration ([Ca2+]i) following channel activation in cells inducibly expressing the TRPC5 channel. Ca2+ rise was quantified with the use of fluorescent Ca2+ indicators that were loaded into cells and thereafter indicated the [Ca2+]i Ca2+ influx followed activation of the TRPC5 channel. Compounds inhibiting the [Ca2+]i rise were considered hits for further investigation.
The commercially available HEK293/TREx line (Invitrogen) was stably transfected with a TRPC5 construct and screened by conventional calcium imaging to find clones with TRPC5 expression following stimulation with 1 μg/ml tetracycline. These cells were maintained in the growth medium recommended by the manufacturer supplemented with 100 μg/ml hygromycin to promote retention of the TRPC5 construct. After growing to near confluency, cells were plated at a density of ˜35,000 cells/well in 384 well CellBind plates (Corning) in the presence of 1 μg/ml tetracycline, and allowed to grow for 20-30 hrs. A nearly confluent monolayer resulted. Cells were then loaded with Ca2+ dye: Fura-2/AM or Fluo4/AM was added to the wells to a final concentration of 4 μM or 0.5 μM, respectively, and incubated for 80 min or 60 min, respectively, at room temperature. Supernatant was then removed from the cells by inverting plates with a sharp flick, and 25 μl Hank's Balanced Salt Solution (HBSS; 0.185 g/l D-glucose, 0.9767 g/l MgS04 (anhydrous), 0.4 g/l KCl, 0.06 g/l KH2PO4 (anhydrous), 0.35 g/l NaHCO3, 8.0 g/l NaCl, and 0.04788 g/l Na2HPO4 (anhydrous); pH 7.4) was then added to each well. Following ˜0.5 hour for recovery from loading, cells were assayed using the Hamamatsu FDSS 6000 system, which permitted illumination alternately at 340 nm and 380 nm for Fura-2 experiments, or at 485 nm for Fluo4 experiments. Frames were acquired at a rate of 0.2 Hz. During the assay, the plates were continuously vortexed, with pipette mixing of wells following addition of each reagent. For the screening assay, 26 μl of a diluted compound stock (at 50 μM) was added to each well for 2 minutes following the collection of a short (4 frame) baseline. 13 μl 62 mM high-Ca2+Ringer solution (4.17 ml of normal ringer (with 2 mM Ca2+) plus 5.83 ml of isotonic calcium ringer (105 mM Ca2+; in this ringer all sodium has been replaced with calcium)) was then added to each well, achieving a final concentration of 14 mM Ca2+ and 10 μM test compound. Data was collected for ˜3 minutes following addition of high Ca2+Ringer, where the fluorescent intensity (for Fluo4) and the F340/F380 ratio (for Fura-2) were proportional to the [Ca2+]i Negative controls consisted of HEK293/TREx TRPC5 cells exposed to high Ca2+ solution, but no compound. Positive control conditions consisted of addition of 2-APB, a promiscuous blocker of TRPC5 and other channels, to columns 23 and 24 of the plates, to a final concentration of 200 μM. These controls defined a screening window, and “hits” were defined as those compounds inhibiting the fluorescence response by at least 40%. IC50 values were determined for compounds defined as “hits.” The Fluo4 cell-based fluorescence assay was used to determine the intracellular Ca2+ concentration in the presence of varying drug concentration. Final concentrations of compounds tested were 20 μM, 6.667 μM, 2.222 μM, 0.741 μM, 0.247 μM, 0.082 μM, and 0.027 μM. Compounds were tested in triplicate at all concentrations. Standard software was used to fit IC50 curves. A value of NF was assigned when no IC50 curves could not be fit.
Additionally or alternatively, efficacy can be represented as % inhibition in the presence (of a given concentration of compound) versus the absence of compound or in comparison to a control compound. For example, efficacy can be represented as % inhibition of ion flux in the presence versus the absence of compound.
Usually IC50 stands for the concentration needed to halve the response being measured. High values mean weaker potency in that assay, low ones greater potency in that assay. In the case of `Cn1c(=O)n(CCCO)c(=O)c2c(Cc3ccc(Cl)cc3)c(Oc3cccnc3)cnc21` [Compound 14, 5-(4-chlorobenzyl)-3-(3-hydroxypropyl)-1-methyl-6-(pyridin-3-yloxy)pyrido[2,3-d]pyrimidine-2,4(1H,3H)-dione], it took 3250 nM to reach half-maximal inhibition (IC50).
Compound `Cn1c(=O)n(CCCO)c(=O)c2c(Cc3ccc(Cl)cc3)c(Oc3cncc(F)c3)cnc21` [Compound 15, 5-(4-chlorobenzyl)-6-((5-fluoropyridin-3-yl)oxy)-3-(3-hydroxypropyl)-1-methylpyrido[2,3-d]pyrimidine-2,4(1H,3H)-dione] displayed an IC50 of 7530 nM.
The same measure for `Cn1c(=O)n(CCCO)c(=O)c2c(Cc3ccc(Cl)cc3)c(Oc3cncc(Cl)c3)cnc21` [Compound 16, 5-(4-chlorobenzyl)-6-((5-chloropyridin-3-yl)oxy)-3-(3-hydroxypropyl)-1-methylpyrido[2,3-d]pyrimidine-2,4(1H,3H)-dione]: 3740 nM; for `CC(C)c1ccccc1-c1cnc2c(c1C(O)c1ccc(Cl)cc1)c(=O)n(CCCO)c(=O)n2C` (stereo not drawn) [Compound 20, 5-((4-chlorophenyl)(hydroxy)methyl)-3-(3-hydroxypropyl)-6-(2-isopropylphenyl)-1-methylpyrido[2,3-d]pyrimidine-2,4(1H,3H)-dione]: 977 nM; for `Cn1c(=O)n(CCCO)c(=O)c2c(Cc3ccc(C(F)(F)F)cc3)c(Oc3cccc(C(F)(F)F)c3)cnc21` [Compound 22, 3-(3-hydroxypropyl)-1-methyl-5-(4-(trifluoromethyl)benzyl)-6-(3-(trifluoromethyl)phenoxy)pyrido[2,3-d]pyrimidine-2,4(1H,3H)-dione]: 180 nM.
Then `Cn1c(=O)n(CCCO)c(=O)c2c(Cc3ccc(C(F)(F)F)nc3)c(Oc3cccc(C(F)(F)F)c3)cnc21` [Compound 24, 3-(3-hydroxypropyl)-1-methyl-6-(3-(trifluoromethyl)phenoxy)-5-((6-(trifluoromethyl)pyridin-3-yl)methyl)pyrido[2,3-d]pyrimidine-2,4(1H,3H)-dione], with 1340 nM; and `Cn1c(=O)n(CCCO)c(=O)c2c(Cc3ccc(Cl)cc3)c(-c3cccc(F)c3)cnc21` [Compound 25, 5-(4-chlorobenzyl)-6-(3-fluorophenyl)-3-(3-hydroxypropyl)-1-methylpyrido[2,3-d]pyrimidine-2,4(1H,3H)-dione], with 739 nM.
Consider `Cn1c(=O)n(CCCO)c(=O)c2c(Cc3ccc(Cl)cc3)c(Oc3cccc(Cl)c3)cnc21` [Compound 26, 5-(4-chlorobenzyl)-6-(3-chlorophenoxy)-3-(3-hydroxypropyl)-1-methylpyrido[2,3-d]pyrimidine-2,4(1H,3H)-dione], for which the IC50 came to 1290 nM.
Then `CC(C)c1cccc(Oc2cnc3c(c2Cc2ccccc2)c(=O)n(CCCO)c(=O)n3C)c1` [Compound 28, 5-benzyl-3-(3-hydroxypropyl)-6-(3-isopropylphenoxy)-1-methylpyrido[2,3-d]pyrimidine-2,4(1H,3H)-dione], with 28.5 nM; and `Cn1c(=O)n(CCCO)c(=O)c2c(Cc3ccc(C(F)(F)F)nc3)c(Oc3cccc(OC(F)(F)F)c3)cnc21` [Compound 32, 3-(3-hydroxypropyl)-1-methyl-6-(3-(trifluoromethoxy)phenoxy)-5-((6-(trifluoromethyl)pyridin-3-yl)methyl)pyrido[2,3-d]pyrimidine-2,4(1H,3H)-dione], with 350 nM; and `CC(C)CCc1c(OC(C)C)cnc2c1c(=O)n(CCCO)c(=O)n2C` [Compound 37, 3-(3-hydroxypropyl)-5-isopentyl-6-isopropoxy-1-methylpyrido[2,3-d]pyrimidine-2,4(1H,3H)-dione], with 1160 nM.
Then `CC(C)c1ccccc1-c1cnc2c(c1Cc1ccc(Cl)cc1)c(=O)n(CCCO)c(=O)n2C` [Compound 38, 5-(4-chlorobenzyl)-3-(3-hydroxypropyl)-6-(2-isopropylphenyl)-1-methylpyrido[2,3-d]pyrimidine-2,4(1H,3H)-dione], with 215 nM.
`CC(C)c1ccccc1Oc1cnc2c(c1Cc1ccc(F)cc1)c(=O)n(CCCO)c(=O)n2C` [Compound 41, 5-(4-fluorobenzyl)-3-(3-hydroxypropyl)-6-(2-isopropylphenoxy)-1-methylpyrido[2,3-d]pyrimidine-2,4(1H,3H)-dione]: the midpoint of inhibition, the IC50, lay at 33.8 nM.
As for `Cn1c(=O)n(CCCO)c(=O)c2c(Cc3ccc(C(F)(F)F)nc3)c(Oc3cccc(Cl)c3)cnc21` [Compound 43, 6-(3-chlorophenoxy)-3-(3-hydroxypropyl)-1-methyl-5-((6-(trifluoromethyl)pyridin-3-yl)methyl)pyrido[2,3-d]pyrimidine-2,4(1H,3H)-dione], the IC50 was determined as 1420 nM.
`CC(C)CC(O)c1c(Oc2cccc(OC(F)(F)F)c2)cnc2c1c(=O)n(CCCO)c(=O)n2C` (stereo not drawn) [Compound 44, 5-(1-hydroxy-3-methylbutyl)-3-(3-hydroxypropyl)-1-methyl-6-(3-(trifluoromethoxy)phenoxy)pyrido[2,3-d]pyrimidine-2,4(1H,3H)-dione]: the half-inhibitory concentration (IC50) was 3450 nM.
Then `CC(C)CCc1c(Oc2cccc(C(F)(F)F)c2)cnc2c1c(=O)n(CCCO)c(=O)n2C` [Compound 46, 3-(3-hydroxypropyl)-5-isopentyl-1-methyl-6-(3-(trifluoromethyl)phenoxy)pyrido[2,3-d]pyrimidine-2,4(1H,3H)-dione], with over 20000 nM; and `CC(C)CCc1c(Oc2cccc(Cl)c2)cnc2c1c(=O)n(CCCO)c(=O)n2C` [Compound 48, 6-(3-chlorophenoxy)-3-(3-hydroxypropyl)-5-isopentyl-1-methylpyrido[2,3-d]pyrimidine-2,4(1H,3H)-dione], with over 10000 nM; and `CC(C)CCc1c(Oc2cccc(OC(F)(F)F)c2)cnc2c1c(=O)n(CCCO)c(=O)n2C` [Compound 49, 3-(3-hydroxypropyl)-5-isopentyl-1-methyl-6-(3-(trifluoromethoxy)phenoxy)pyrido[2,3-d]pyrimidine-2,4(1H,3H)-dione], with over 20000 nM.
